# Measurements as given in ChEMBL document CHEMBL3044906, “Synthesis and blood glucose lowering activity of some novel benzenesulfonylthiourea derivatives substituted with 6-aryl-4,5-dihyropyridazin-3(2H)-ones” (2012).
# Active and inactive are the calls of the source. The calls are words filed in the database; no cut-off is given here.
# Experiments:
# [1] = test system: Rattus norvegicus; assay: Antihyperglycemic activity in Rattus norvegicus Wistar albino (rat) assessed as reduction in blood glucose level at 20 mg/kg, po administered 30 min before 3 g/kg, po glucose challenge by oral glucose tolerance test; assay type: functional
# [2] = test system: Rattus norvegicus; assay: Antihyperglycemic activity in Rattus norvegicus Wistar albino (rat) assessed as blood glucose level at 20 mg/kg, po administered 30 min before 3 g/kg, po glucose challenge by oral glucose tolerance test (reference value: 149 +/- 6.3 mg/dl); assay type: functional
SMILES,inhibition in vivo at 20 mg/kg [1] [%],Activity [2] [mg/dL],inhibition [1]
O=C1CCC(c2ccc(Cl)cc2)=NN1c1ccc(S(=O)(=O)NC(=S)NCc2ccccc2)cc1,38.8,128.5,
CCc1ccc(C2=NN(c3ccc(S(=O)(=O)NC(=S)NCc4ccccc4)cc3)C(=O)CC2)cc1,3.8,148,
Cc1ccc(C2=NN(c3ccc(S(=O)(=O)NC(=S)NCc4ccccc4)cc3)C(=O)CC2)cc1,21.3,136,
CCCNC(=S)NS(=O)(=O)c1ccc(N2N=C(c3ccc(Oc4ccccc4)cc3)CCC2=O)cc1,,152,inactive
O=C1CCC(c2ccc(-c3ccccc3)cc2)=NN1c1ccc(S(=O)(=O)NC(=S)Nc2ccccc2)cc1,,166,inactive
O=C1CCC(c2ccc(Oc3ccccc3)cc2)=NN1c1ccc(S(=O)(=O)NC(=S)NCc2ccccc2)cc1,3,147.5,
CCCNC(=S)NS(=O)(=O)c1ccc(N2N=C(c3ccc(Cl)cc3)CCC2=O)cc1,32.7,132.5,
COc1ccc(C2=NN(c3ccc(S(=O)(=O)NC(=S)NCc4ccccc4)cc3)C(=O)CC2)cc1,5.6,152,
COc1ccc(Cl)cc1C(=O)NCCc1ccc(S(=O)(=O)NC(=O)NC2CCCCC2)cc1 [GLYBURIDE],,94.3,
COc1ccc(C2=NN(c3ccc(S(=O)(=O)NC(=S)Nc4ccccc4)cc3)C(=O)CC2)cc1,,170.5,inactive
O=C1CCC(c2ccc(-c3ccccc3)cc2)=NN1c1ccc(S(=O)(=O)NC(=S)NCc2ccccc2)cc1,24.8,137.5,
CCCNC(=S)NS(=O)(=O)c1ccc(N2N=C(c3ccc(C)cc3)CCC2=O)cc1,30.9,134.5,
O=C1CCC(c2ccccc2)=NN1c1ccc(S(=O)(=O)NC(=S)NCc2ccccc2)cc1,26.6,139,
CCCNC(=S)NS(=O)(=O)c1ccc(N2N=C(c3ccccc3)CCC2=O)cc1,,160,inactive
CCCNC(=S)NS(=O)(=O)c1ccc(N2N=C(c3ccc(OC)cc3)CCC2=O)cc1,37.1,132,
O=C1CCC(c2ccc(Cl)cc2)=NN1c1ccc(S(=O)(=O)NC(=S)Nc2ccccc2)cc1,4.7,148,
